Source: US9079866B2, “Flap modulators” (JANSSEN PHARMACEUTICA NV, priority 2013, dated 2015)
Structures can show the parent of a compound that is named as a salt. Where two headings read alike, the source gives them in different places.

Tests used:
human FLAP = human FLAP (Homo sapiens (Human), UniProt P20292); assay: FLAP binding assay (HTRF format)
Method in brief: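 Reported data take the mean of two different plates carrying duplicate samples and use the HTRF ratio as the measured signal.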

[1] = system: leukotriene pathway in human whole blood (LTB4 levels); assay: Human whole blood assay (A23187-stimulated LTB4); format: cell-based; settings: Homo sapiens, human whole blood diluted 1:1, A23187-stimulated; read-out: LTB4 IC50 1:1
Method in brief: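 Single-replicate data from at least one healthy donor: compound pre-incubated 15 min at 37° Celsius in 1:1 RPMI-diluted heparinised blood, followed by 30 min calcium ionophore A23187 (7 μg/mL) challenge at 37° Celsius. LTB4 in plasma quantified by kit; IC50 via 4-parameter equation.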

[2] = read-out: FLAP Binding wild type HTRF Ki

Sequence of human FLAP (P20292 whole entry): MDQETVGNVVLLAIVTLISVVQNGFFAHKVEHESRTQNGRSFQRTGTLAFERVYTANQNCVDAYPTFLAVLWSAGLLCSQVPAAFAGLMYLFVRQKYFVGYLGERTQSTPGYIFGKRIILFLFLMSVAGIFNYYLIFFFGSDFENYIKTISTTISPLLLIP

Compound	Ki (human FLAP; wild type FLAP, HTRF format) [µM]	IC50 [1] [µM]	Ki (human FLAP; [2]) [µM]
Nc1cnc(-c2ccc(-c3ccccc3Sc3ccncn3)cc2F)cn1 [Example 743, 5-(3-Fluoro-2′-(pyrimidin-4-ylthio)-[1,1′-biphenyl]-4-yl)pyrazin-2-amine]	0.0016	0.0216	
Nc1cnc(Sc2ccccc2-c2ccc(-c3cnc(N)nc3)c(F)c2)cn1 [Example 744, 5-{2′-[(5-Aminopyrazin-2-yl)sulfanyl]-3-fluorobiphenyl-4-yl}pyrimidin-2-amine]	0.0155	0.132	
N#Cc1nc(N)cnc1-c1ccc(-c2ccc(C(F)(F)F)cc2Oc2ncccn2)cc1F [Example 746, 6-Amino-3-[3-fluoro-2′-(pyrimidin-2-yloxy)-4′-(trifluoromethyl)biphenyl-4-yl]pyrazine-2-carbonitrile]	0.002	0.137	
N#Cc1nc(N)cnc1-c1ccc(-c2ccccc2Oc2ncccn2)cc1F [Example 747, 6-Amino-3-[3-fluoro-2′-(pyrimidin-2-yloxy)biphenyl-4-yl]pyrazine-2-carbonitrile]	0.0271	0.262	
CCS(=O)(=O)Cc1ccccc1-c1ccc(-c2cnc(N)cn2)c(F)c1 [Example 749, 5-{2′-[(Ethylsulfonyl)methyl]-3-fluorobiphenyl-4-yl}pyrazin-2-amine hydrogen chloride salt]		0.468	0.245
CC(C)S(=O)(=O)Cc1ccccc1-c1ccc(-c2cnc(N)cn2)c(F)c1 [Example 751, 5-(3-Fluoro-2′-{[(1-methylethyl)sulfonyl]methyl}biphenyl-4-yl)pyrazin-2-amine]	0.0809	1.06	
Nc1cnc(-c2ccc(-c3ccccc3CS(=O)(=O)c3ncccn3)cc2F)cn1 [Example 752, 5-{3-Fluoro-2′-[(pyrimidin-2-ylsulfonyl)methyl]biphenyl-4-yl}pyrazin-2-amine]	0.135	0.299	
Nc1cnc(-c2ccc(-c3ccccc3CSc3nccc(N)n3)cc2F)cn1 [Example 753, 2-({[4′-(5-Aminopyrazin-2-yl)-3′-fluorobiphenyl-2-yl]methyl}sulfanyl)pyrimidin-4-amine]	0.0044	0.0213	
Nc1cnc(-c2ccc(-c3ccc(C(F)(F)F)cc3C(=O)N3CCS(=O)(=O)CC3)cc2F)cn1 [Example 757, 5-{2′-[(1,1-Dioxidothiomorpholin-4-yl)carbonyl]-3-fluoro-4′-(trifluoromethyl)biphenyl-4-yl}pyrazin-2-amine]	0.0052	0.0162	
Nc1cnc(-c2ccc(-c3ccccc3C(=O)N3CCC[C@@H](O)C3)cc2F)cn1 [Example 762, (3R)-1-{[4′-(5-Aminopyrazin-2-yl)-3′-fluorobiphenyl-2-yl]carbonyl}piperidin-3-ol]	0.159	0.442	
CC(C)(C)NC(=O)c1cc(C(F)(F)F)ccc1-c1ccc(-c2cnc(N)cn2)c(F)c1 [Example 784, 2-[4-(5-Aminopyrazin-2-yl)-3-fluoro-phenyl]-N-tert-butyl-5-(trifluoromethyl)benzamide]	0.0079	0.111	
C[C@H](CO)NC(=O)c1cc(C(F)(F)F)ccc1-c1ccc(-c2cnc(N)cn2)c(F)c1 [Example 785, 2-[4-(5-Aminopyrazin-2-yl)-3-fluoro-phenyl]-N-[(1R)-2-hydroxy-1-methyl-ethyl]-5-(trifluoromethyl)benzamide]	0.0085	0.0575	
C[C@@H](CO)NC(=O)c1cc(C(F)(F)F)ccc1-c1ccc(-c2cnc(N)cn2)c(F)c1 [Example 786, 2-[4-(5-Aminopyrazin-2-yl)-3-fluoro-phenyl]-N-[(1S)-2-hydroxy-1-methyl-ethyl]-5-(trifluoromethyl)benzamide]	0.0607	0.105	
C[C@@H](NC(=O)c1cc(C(F)(F)F)ccc1-c1ccc(-c2cnc(N)cn2)c(F)c1)C(F)(F)F [Example 787, 2-[4-(5-Aminopyrazin-2-yl)-3-fluoro-phenyl]-5-(trifluoromethyl)-N-[(1R)-2,2,2-trifluoro-1-methyl-ethyl]benzamide]	0.0091	0.0979	
C[C@H](NC(=O)c1cc(C(F)(F)F)ccc1-c1ccc(-c2cnc(N)nc2)c(F)c1)C(F)(F)F [Example 788, 2-[4-(2-Aminopyrimidin-5-yl)-3-fluoro-phenyl]-5-(trifluoromethyl)-N-[(1S)-2,2,2-trifluoro-1-methyl-ethyl]benzamide]	0.0178	0.272	
C[C@@H](NC(=O)c1cc(C(F)(F)F)ccc1-c1ccc(-c2cnc(N)nc2)c(F)c1)C(F)(F)F [Example 789, 2-[4-(2-Aminopyrimidin-5-yl)-3-fluoro-phenyl]-5-(trifluoromethyl)-N-[(1R)-2,2,2-trifluoro-1-methyl-ethyl]benzamide]	0.13	0.939	
C[C@H](NC(=O)c1cc(C(F)(F)F)ccc1-c1ccc(-c2cnc(N)cn2)c(F)c1)C(F)(F)F [Example 790, 2-[4-(5-Aminopyrazin-2-yl)-3-fluoro-phenyl]-5-(trifluoromethyl)-N-[(1S)-2,2,2-trifluoro-1-methyl-ethyl]benzamide]	0.0015	0.0253	

Compound	Ki (human FLAP; wild type FLAP, HTRF format) [µM]	IC50 [1] [µM]	Ki (human FLAP; [2]) [µM]
Nc1ncc(-c2ccc(-c3ccc(C(F)(F)F)cc3C(=O)N3CCS(=O)(=O)CC3)cc2F)cn1 [Example 793, [2-[4-(2-Aminopyrimidin-5-yl)-3-fluoro-phenyl]-5-(trifluoromethyl)phenyl]-(1,1-dioxo-1,4-thiazinan-4-yl)methanone]	0.28	0.642	
CC(C)(C)NC(=O)c1cc(C(F)(F)F)ccc1-c1ccc(-c2cnc(N)nc2)c(F)c1 [Example 794, 2-[4-(2-Aminopyrimidin-5-yl)-3-fluoro-phenyl]-N-tert-butyl-5-(trifluoromethyl)benzamide]	0.0328	3.94	
Nc1cnc(-c2ccc(-c3ccc(C(F)(F)F)cc3C(=O)N3CCC(O)CC3)cc2F)cn1 [Example 795, [2-[4-(5-Aminopyrazin-2-yl)-3-fluoro-phenyl]-5-(trifluoromethyl)phenyl]-(4-hydroxy-1-piperidyl)methanone]	0.0085	0.0686	
CC(C)(C)C(=O)Nc1ncccc1-c1ccc(-c2cnc3[nH]ccc3c2)c(F)c1 [Example 802, N-{3-[3-Fluoro-4-(1H-pyrrolo[2,3-b]pyridin-5-yl)phenyl]pyridin-2-yl}-2,2-dimethylpropanamide]	> 10	0.000994	
Nc1ncc(-c2ccc(-c3cccnc3S(=O)(=O)C3CCC3)cc2F)cn1 [Example 805, 5-(4-(2-(Cyclobutylsulfonyl)pyridin-3-yl)-2-fluorophenyl)pyrimidin-2-amine hydrochloride]	0.0297	0.353	
Nc1cnc(-c2ccc(-c3cccnc3S(=O)(=O)C3CCC3)cc2F)cn1 [Example 806, 5-(4-(2-(Cyclobutylsulfonyl)pyridin-3-yl)-2-fluorophenyl)pyrazin-2-amine hydrochloride]	0.0018	0.0484	
Nc1ncc(-c2ccc(-c3cccnc3S(=O)(=O)C3CCCCC3)cc2F)cn1 [Example 807, 5-(4-(2-(Cyclohexlsulfonyl)pyridin-3-yl)-2-fluorophenyl)pyrimidin-2-amine hydrochloride]		0.0722	0.0058
Nc1cnc(-c2ccc(-c3cccnc3S(=O)(=O)C3CCCCC3)cc2F)cn1 [Example 808, 5-(4-(2-(Cyclohexylsulfonyl)pyridin-3-yl)-2-fluorophenyl)pyrazin-2-amine hydrochloride]	0.0004	0.00637	
Nc1ncc(-c2ccc(-c3cccnc3S(=O)(=O)C3CCCC3)cc2F)cn1 [Example 809, 5-(4-(2-(Cyclopentylsulfonyl)pyridin-3-yl)-2-fluorophenyl)pyrimidine-2-amine hydrochloride]	0.0038	0.0377	
Nc1cnc(-c2ccc(-c3cccnc3S(=O)(=O)C3CCCC3)cc2F)cn1 [Example 810, 5-(4-(2-(Cyclopentylsulfonyl)pyridin-3-yl)-2-fluorophenyl)pyrazin-2-amine hydrochloride]	0.0006	0.00564	
CC(C)(C)S(=O)(=O)c1ncccc1-c1ccc(-c2cnc(N)nc2)c(F)c1 [Example 811, 5-(4-(2-(tert-Butylsulfonyl)pyridin-3-yl)-2-fluorophenyl)pyrimidin-2-amine formic acid salt]		0.541	0.315
CC(C)(C)S(=O)(=O)c1ncccc1-c1ccc(-c2cnc(N)cn2)c(F)c1 [Example 812, 5-(4-(2-(tert-Butylsulfonyl)pyridin-3-yl)-2-fluorophenyl)pyrazin-2-amine formic acid salt]		0.012	0.0085
CC(=O)N1CCC(S(=O)(=O)c2ncccc2-c2ccc(-c3cnc(N)nc3)c(F)c2)CC1 [Example 815]	0.256	0.128	
CC(=O)N1CCC(S(=O)(=O)c2ncccc2-c2ccc(-c3cnc(N)cn3)c(F)c2)CC1 [Example 816, 1-((3-(4-(2-Aminopyrazin-5-yl)-3-fluorophenyl)pyridine-2-yl)sulfonyl)piperidin-1-yl)ethanone hydrogen chloride salt]	0.0218	0.046	
COCCCS(=O)(=O)c1ncccc1-c1ccc(-c2cnc(N)cn2)c(F)c1 [Example 818, 5-(2-Fluoro-4-(2-((3-methoxypropyl)sulfonyl)pyridine-3-yl)phenyl)pyrazin-2-amine hydrogen chloride salt]	0.0272	0.0516	
Nc1ncc(-c2ccc(-c3cccnc3S(=O)(=O)C3CCS(=O)(=O)CC3)cc2F)cn1 [Example 819, 4-((3-(4-(2-aminopyrimidin-5-yl)-3-fluorophenyl)pyridine-2-yl)sulfonyl)tetrahydro-2H-thiopyran 1,1-dioxide]	0.0405	0.0475	
